Tested on: primary cultures of rat hepatocytes
Experiment: Production of free radicals (DCFH-DA fluorescence) after t-BOOH exposure

## O=c1c(O)c(-c2ccc(O)c(O)c2)oc2cc(O)cc(O)c12 [Quercetin, quercetin]
5 μM, Table 1, ratio of t-BOOH positive control, positive control of the test
  Free radicals (%): 51.5 ± 2.1%
25 μM, Table 1, ratio of t-BOOH positive control, positive control of the test
  Free radicals (%): 18.8 ± 1.2%
25 μM, Table 2, ratio of t-BOOH control (100), median ± SE
  Free radicals (%): 13.2 ± 5.6 %
